Assay results: patent US20120214847A1, “2-[1-PHENYL-5-HYDROXY-4a-SUBSTITUTED-HEXAHYDROCYCLOPENTA[F]INDAZOL-5-YL]ETHYL PHENYL DERIVATIVES AS GLUCOCORTICOID RECEPTOR LIGANDS” (Merck Sharp & Dohme Corp., priority 2009, published 2012)

Biological target: T1, human GR (Homo sapiens, UniProt P04150)
T1 construct: naturally expresses the human GR; endogenous in cells
T1 sequence (P04150 1-777): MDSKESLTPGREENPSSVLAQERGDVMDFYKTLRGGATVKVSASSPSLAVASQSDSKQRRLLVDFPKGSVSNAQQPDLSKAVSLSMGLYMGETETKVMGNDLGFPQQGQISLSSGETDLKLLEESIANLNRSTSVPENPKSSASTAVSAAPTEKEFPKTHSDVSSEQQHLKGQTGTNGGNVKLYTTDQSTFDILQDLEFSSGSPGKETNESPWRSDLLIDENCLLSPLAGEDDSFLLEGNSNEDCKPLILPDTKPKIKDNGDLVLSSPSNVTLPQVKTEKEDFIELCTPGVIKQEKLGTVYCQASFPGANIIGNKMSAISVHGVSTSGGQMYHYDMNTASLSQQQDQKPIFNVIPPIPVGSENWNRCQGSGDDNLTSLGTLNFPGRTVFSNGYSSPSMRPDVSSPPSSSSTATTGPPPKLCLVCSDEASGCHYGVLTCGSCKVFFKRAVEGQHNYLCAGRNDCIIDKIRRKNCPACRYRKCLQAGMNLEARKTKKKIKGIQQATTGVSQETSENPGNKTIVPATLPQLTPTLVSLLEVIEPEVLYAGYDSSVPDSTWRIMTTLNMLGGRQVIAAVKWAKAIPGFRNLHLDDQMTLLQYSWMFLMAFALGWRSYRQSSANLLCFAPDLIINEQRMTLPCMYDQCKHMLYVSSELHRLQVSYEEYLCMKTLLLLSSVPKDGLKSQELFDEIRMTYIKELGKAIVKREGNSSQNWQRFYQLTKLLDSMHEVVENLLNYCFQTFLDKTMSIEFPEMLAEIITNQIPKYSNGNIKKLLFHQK
Assay: Transrepression assay (GITAR), TNFα-β-lactamase reporter in U937 cells
Type: cell-based
Details: for EC50: IP = inflection point; for Emax: U-937, U937 cells
Excerpt: Transrepression Assay (GITAR)
This assay assesses the ability of test compounds to control transcription from the TNFα-β-lactamase reporter gene in U937 cells, a human myelomonocytic leukemia cell line that naturally expresses the human GR. The assay measures compound dependent-repression of the TNFa promoter linked to a reporter gene.
The human U937 cells that had been stablely transfected with the TNF-a promoter driving ˜-lactamase are used for this assay. U937 cells contain an endogenous glucocorticoid receptor (GR). Cells are maintained in RPMI 1640 Growth medium (GibcoCat#11875-093) containing 25 mM HEPES, 10% FBS, 2 mM L-Glutamine, 1 mM Sodium pyruvate, 25 μg/ml Gentamicin (Gibed Cat#1571 0-064), 1:1000 2-Mercaptoethanol (Gibco Cat#21985-023) and 0.8 mg/ml G418 (Gibco Cat#10131-027). The density of the cells in the flask needs to be about 1×10^6-3×10^6/ml at the time of harvest. Usually, the cells are split to 1.2˜1.4×10^5/ml (1:10) 3 days prior to the assay. 50,000 cells/well are plated in 96 well black-walled plates the day of assay. Test compounds are added 10 J.lL/well, and cells are incubated at 37° C. for 30˜45 min. For assaying compounds, first dilute 1:10 in DMSO to make 1 mM, then further dilute 1:100 in medium to make 10× stock prior to adding to the cells. Add 50 ng/ml PMA (Sigma, cat#P8139) 10 μL/well to a final concentration 5 ng/ml, and 1 μg/ml LPS (Sigma, cat#L4130) 10 μL/well to a final concentration 100 ng/ml. Incubate cells at 370 C overnight for −18 hr. PMA is stored frozen as […] in DMSO. Dilute 1:10 in DMSO for a working stock of 10 μg/ml and store at −20° C. For assaying, dilute the 10 μg/ml working stock 1:200 in medium to make a 10× solution (50 ng/ml). Store frozen LPS at 1 mg/ml in PBS, dilute 1:1000 in medium to make 10×μg/ml) for the assay. Add 6× loading buffer (CCF2-AM) 20 μL/well, and incubate at room temperature for 70-90 min. […] The activity repressed by 100 nM dexamethasone alone is set as 100% activity.

[1] = activity repressed by 100 nM dexamethasone alone set as 100%

EC50 (U937 cells)	Emax [1]	Transrepression U937 Cells GITAR Emax (%) (U937 cells, activity repressed by 100 nM dexamethasone alone set as 100%)	Compound
51 nM	86%		N#Cc1ccccc1CC[C@]1(O)CCC2=Cc3c(cnn3-c3ccccc3)C[C@@]21C1CC1 [Example 27, 2-{2-[(4aR,5R)-4a-Cyclopropyl-5-hydroxy-1-phenyl-1,4,4a,5,6,7-hexahydrocyclopenta[f]indazol-5-yl]ethyl}benzonitrile]
178 nM	63%		N#Cc1ccccc1CC[C@]1(O)CCC2=Cc3c(cnn3-c3cccnc3)C[C@@]21C1CC1 [Example 30, 2-{2-[(4aR,5R)-4a-Cyclopropyl-5-hydroxy-1-(pyridin-3-yl)-1,4,4a,5,6,7-hexahydrocyclopenta[f]indazol-5-yl]ethyl}benzonitrile]
72 nM	77%		CC[C@]12Cc3cnn(-c4ccc(F)cc4)c3C=C1CC[C@@]2(O)CCc1nccc(OC)c1CC(N)=O [Example 64, 2-(2-{2-[(4aS,5R)-4a-Ethyl-1-(4-fluorophenyl)-5-hydroxy-1,4,4a,5,6,7-hexahydrocyclopenta[f]indazol-5-yl]ethyl}-4-methoxypyridin-3-yl)acetamide]
235 nM	67%		CC[C@]12Cc3cnn(-c4ccccc4)c3C=C1CC[C@@]2(O)CC(O)c1cc(C#N)ccn1 (stereo partly drawn) [Example 75, 2-{2-[(4aS,5R)-4a-Ethyl-5-hydroxy-1-phenyl-1,4,4a,5,6,7-hexahydrocyclopenta[f]indazol-5-yl]-1-hydroxyethyl}pyridine-4-carbonitrile]
127 nM	75%		O=S(=O)(c1ccccc1CC[C@]1(O)CCC2=Cc3c(cnn3-c3ccc(F)cc3)C[C@@]21C1CC1)C1CC1 [Example 63, (4aR,5R)-4a-Cyclopropyl-5-{2-[2-(cyclopropylsulfonyl)phenyl]ethyl}-1-(4-fluorophenyl)-1,4,4a,5,6,7-hexahydrocyclopenta[f]indazol-5-ol]
74 nM	88%		CCS(=O)(=O)c1ccccc1CC[C@]1(O)CCC2=Cc3c(cnn3-c3ccc(F)cc3)C[C@@]21C1CC1 [Example 59, (4aR,5R)-4a-Cyclopropyl-5-{2-[2-(ethylsulfonyl)phenyl]ethyl}-1-(4-fluorophenyl)-1,4,4a,5,6,7-hexahydrocyclopenta[f]indazol-5-ol]
9 nM	83%		NC(=O)CNC(=O)c1ccccc1CC[C@]1(O)CCC2=Cc3c(cnn3-c3ccc(F)cc3)C[C@@]21C1CC1 [Example 47, N-(2-Amino-2-oxoethyl)-2-{2-[(4aR,5R)-4a-cyclopropyl-1-(4-fluorophenyl)-5-hydroxy-1,4,4a,5,6,7-hexahydrocyclopenta[f]indazol-5-yl]ethyl}benzamide]
95 nM	78%		NC(=O)Cc1ccccc1CC[C@]1(O)CCC2=Cc3c(cnn3-c3ccc(F)cc3)C[C@@]21C1CC1 [Example 56, 2-(2-{2-[(4aR,5S)-4a-Cyclopropyl-1-(4-fluorophenyl)-5-hydroxy-1,4,4a,5,6,7-hexahydrocyclopenta[f]indazol-5-yl]ethyl}phenyl)acetamide]
277 nM		44%	CC[C@]12Cc3cnn(-c4ccccc4)c3C=C1CC[C@@]2(O)CC(O)c1ccccn1 (single isomer, unassigned) [Example 67b]
43 nM	88%		CC[C@]12Cc3cnn(-c4cccnc4)c3C=C1CC[C@@]2(O)CCc1cccc(F)c1C(N)=O [Example 14, 2-{2-[(4aS,5R)-4a-Ethyl-5-hydroxy-1-(pyridin-3-yl)-1,4,4a,5,6,7-hexahydrocyclopenta[f]indazol-5-yl]ethyl}-6-fluorobenzamide]
75 nM	86%		CC[C@]12Cc3cnn(-c4ccc(F)cc4)c3C=C1CC[C@@]2(O)CCc1ncc(F)cc1C(N)=O [Example 53, 2-{2-[(4aS,5R)-4a-Ethyl-1-(4-fluorophenyl)-5-hydroxy-1,4,4a,5,6,7-hexahydrocyclopenta[f]indazol-5-yl]ethyl}-5-fluoropyridine-3-carboxamide]
